# Measured values published in the kinase profiling compilation of Christmann-Franck et al. (2016).
# How the values were obtained:
# Assay in all cases: KINOMEscan competition binding
# Conditions in all cases: compound 10.0 µM
# MYLK (human) = MYLK (human) (UniProt Q15746)
# MAPKAPK5 (human) = MAPKAPK5 (human) (UniProt Q8IW41)
# PHKG1 (human) = PHKG1 (human) (UniProt Q16816)
# ROS1 (human) = ROS1 (human) (UniProt P08922)
# PRKD1 (human) = PRKD1 (human) (UniProt Q15139)
# AURKA (human) = AURKA (human) (UniProt O14965)
# MAPK11 (human) = MAPK11 (human) (UniProt Q15759)
# AURKC (human) = AURKC (human) (UniProt Q9UQB9)
# Sequence of AURKC (human) (Q9UQB9 whole entry, looked up): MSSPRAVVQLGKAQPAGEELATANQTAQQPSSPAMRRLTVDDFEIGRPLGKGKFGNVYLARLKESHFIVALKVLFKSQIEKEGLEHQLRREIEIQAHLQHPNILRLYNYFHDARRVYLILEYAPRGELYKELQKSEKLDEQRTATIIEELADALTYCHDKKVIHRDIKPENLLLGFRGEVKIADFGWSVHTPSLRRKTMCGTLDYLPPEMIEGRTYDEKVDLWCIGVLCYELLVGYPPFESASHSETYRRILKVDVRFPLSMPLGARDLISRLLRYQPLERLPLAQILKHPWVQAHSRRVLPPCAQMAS
# MAPK7 (human) = MAPK7 (human) (UniProt Q13164)
# Sequence of MAPK7 (human) (Q13164 whole entry, looked up): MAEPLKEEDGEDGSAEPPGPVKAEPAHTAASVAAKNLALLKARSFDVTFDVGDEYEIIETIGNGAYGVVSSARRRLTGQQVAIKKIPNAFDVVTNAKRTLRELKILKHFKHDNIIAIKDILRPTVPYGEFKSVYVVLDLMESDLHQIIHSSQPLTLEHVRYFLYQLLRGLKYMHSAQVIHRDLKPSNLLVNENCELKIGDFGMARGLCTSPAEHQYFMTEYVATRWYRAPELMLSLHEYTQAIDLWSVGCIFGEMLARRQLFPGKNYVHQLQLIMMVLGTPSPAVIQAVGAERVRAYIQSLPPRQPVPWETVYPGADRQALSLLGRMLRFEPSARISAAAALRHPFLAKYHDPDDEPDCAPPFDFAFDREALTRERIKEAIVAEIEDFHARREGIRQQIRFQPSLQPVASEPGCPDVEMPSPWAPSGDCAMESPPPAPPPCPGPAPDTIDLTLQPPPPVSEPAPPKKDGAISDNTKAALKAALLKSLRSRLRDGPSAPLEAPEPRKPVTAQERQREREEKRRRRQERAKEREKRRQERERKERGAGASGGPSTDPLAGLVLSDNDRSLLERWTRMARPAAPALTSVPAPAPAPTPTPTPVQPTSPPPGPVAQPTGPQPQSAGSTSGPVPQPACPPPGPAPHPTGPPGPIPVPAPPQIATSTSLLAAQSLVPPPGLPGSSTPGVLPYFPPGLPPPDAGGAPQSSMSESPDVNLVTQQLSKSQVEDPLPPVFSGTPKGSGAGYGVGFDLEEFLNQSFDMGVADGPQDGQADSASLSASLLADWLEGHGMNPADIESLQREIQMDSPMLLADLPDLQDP
# BMPR1A (human) = BMPR1A (human) (UniProt P36894)
# PRKACB (human) = PRKACB (human) (UniProt P22694)
# INSRR (human) = INSRR (human) (UniProt P14616)
# RAF1 (human) = RAF1 (human) (UniProt P04049)
# MAPKAPK2 (human) = MAPKAPK2 (human) (UniProt P49137)
# FRK (human) = FRK (human) (UniProt P42685)
# CAMK1D (human) = CAMK1D (human) (UniProt Q8IU85)
# LTK (human) = LTK (human) (UniProt P29376)
# [1] = biological target: TYK2 JH1 catalytic (human) (UniProt P29597)
# PKN1 (human) = PKN1 (human) (UniProt Q16512)
# IRAK3 (human) = IRAK3 (human) (UniProt Q9Y616)
# Sequence of IRAK3 (human) (Q9Y616 whole entry, looked up): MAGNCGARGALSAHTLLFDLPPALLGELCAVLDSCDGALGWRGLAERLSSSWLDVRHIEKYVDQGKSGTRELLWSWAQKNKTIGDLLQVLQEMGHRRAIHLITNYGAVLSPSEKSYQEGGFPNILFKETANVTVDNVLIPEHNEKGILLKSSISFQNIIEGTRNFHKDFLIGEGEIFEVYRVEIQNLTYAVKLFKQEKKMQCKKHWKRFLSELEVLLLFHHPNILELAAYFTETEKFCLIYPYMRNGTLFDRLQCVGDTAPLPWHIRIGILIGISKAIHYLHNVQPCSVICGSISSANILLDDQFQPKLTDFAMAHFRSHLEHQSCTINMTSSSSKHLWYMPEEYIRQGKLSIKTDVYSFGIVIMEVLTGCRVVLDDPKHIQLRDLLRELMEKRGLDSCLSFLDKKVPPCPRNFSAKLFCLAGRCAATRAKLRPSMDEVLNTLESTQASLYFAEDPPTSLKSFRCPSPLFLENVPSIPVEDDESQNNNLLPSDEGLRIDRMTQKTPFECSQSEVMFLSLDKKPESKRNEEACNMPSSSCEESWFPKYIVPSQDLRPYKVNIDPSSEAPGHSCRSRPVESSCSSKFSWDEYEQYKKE
# [2] = test system: ABL1 (human), P00519 [F317L]
# CSNK1G2 (human) = CSNK1G2 (human) (UniProt P78368)
# Sequence of CSNK1G2 (human) (P78368 whole entry, looked up): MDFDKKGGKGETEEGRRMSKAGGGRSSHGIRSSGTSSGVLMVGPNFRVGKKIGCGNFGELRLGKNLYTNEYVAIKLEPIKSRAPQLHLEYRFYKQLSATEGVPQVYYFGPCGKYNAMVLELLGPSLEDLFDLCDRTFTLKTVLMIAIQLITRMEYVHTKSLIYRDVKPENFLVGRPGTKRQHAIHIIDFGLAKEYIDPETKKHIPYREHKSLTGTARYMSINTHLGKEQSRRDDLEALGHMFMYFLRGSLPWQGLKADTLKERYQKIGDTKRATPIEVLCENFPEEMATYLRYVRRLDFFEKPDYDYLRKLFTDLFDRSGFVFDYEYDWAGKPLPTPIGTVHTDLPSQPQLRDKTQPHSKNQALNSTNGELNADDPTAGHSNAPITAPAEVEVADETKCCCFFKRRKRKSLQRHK
# CSNK1G3 (human) = CSNK1G3 (human) (UniProt Q9Y6M4)
# DCLK3 (human) = DCLK3 (human) (UniProt Q9C098)
# EPHA6 (human) = EPHA6 (human) (UniProt Q9UF33)
# CSNK2A2 (human) = CSNK2A2 (human) (UniProt P19784)
# PLK2 (human) = PLK2 (human) (UniProt Q9NYY3)
# PIM3 (human) = PIM3 (human) (UniProt Q86V86)
# NEK5 (human) = NEK5 (human) (UniProt Q6P3R8)
# ALK (human) = ALK (human) (UniProt Q9UM73)
# Sequence of ALK (human) (Q9UM73 whole entry, looked up): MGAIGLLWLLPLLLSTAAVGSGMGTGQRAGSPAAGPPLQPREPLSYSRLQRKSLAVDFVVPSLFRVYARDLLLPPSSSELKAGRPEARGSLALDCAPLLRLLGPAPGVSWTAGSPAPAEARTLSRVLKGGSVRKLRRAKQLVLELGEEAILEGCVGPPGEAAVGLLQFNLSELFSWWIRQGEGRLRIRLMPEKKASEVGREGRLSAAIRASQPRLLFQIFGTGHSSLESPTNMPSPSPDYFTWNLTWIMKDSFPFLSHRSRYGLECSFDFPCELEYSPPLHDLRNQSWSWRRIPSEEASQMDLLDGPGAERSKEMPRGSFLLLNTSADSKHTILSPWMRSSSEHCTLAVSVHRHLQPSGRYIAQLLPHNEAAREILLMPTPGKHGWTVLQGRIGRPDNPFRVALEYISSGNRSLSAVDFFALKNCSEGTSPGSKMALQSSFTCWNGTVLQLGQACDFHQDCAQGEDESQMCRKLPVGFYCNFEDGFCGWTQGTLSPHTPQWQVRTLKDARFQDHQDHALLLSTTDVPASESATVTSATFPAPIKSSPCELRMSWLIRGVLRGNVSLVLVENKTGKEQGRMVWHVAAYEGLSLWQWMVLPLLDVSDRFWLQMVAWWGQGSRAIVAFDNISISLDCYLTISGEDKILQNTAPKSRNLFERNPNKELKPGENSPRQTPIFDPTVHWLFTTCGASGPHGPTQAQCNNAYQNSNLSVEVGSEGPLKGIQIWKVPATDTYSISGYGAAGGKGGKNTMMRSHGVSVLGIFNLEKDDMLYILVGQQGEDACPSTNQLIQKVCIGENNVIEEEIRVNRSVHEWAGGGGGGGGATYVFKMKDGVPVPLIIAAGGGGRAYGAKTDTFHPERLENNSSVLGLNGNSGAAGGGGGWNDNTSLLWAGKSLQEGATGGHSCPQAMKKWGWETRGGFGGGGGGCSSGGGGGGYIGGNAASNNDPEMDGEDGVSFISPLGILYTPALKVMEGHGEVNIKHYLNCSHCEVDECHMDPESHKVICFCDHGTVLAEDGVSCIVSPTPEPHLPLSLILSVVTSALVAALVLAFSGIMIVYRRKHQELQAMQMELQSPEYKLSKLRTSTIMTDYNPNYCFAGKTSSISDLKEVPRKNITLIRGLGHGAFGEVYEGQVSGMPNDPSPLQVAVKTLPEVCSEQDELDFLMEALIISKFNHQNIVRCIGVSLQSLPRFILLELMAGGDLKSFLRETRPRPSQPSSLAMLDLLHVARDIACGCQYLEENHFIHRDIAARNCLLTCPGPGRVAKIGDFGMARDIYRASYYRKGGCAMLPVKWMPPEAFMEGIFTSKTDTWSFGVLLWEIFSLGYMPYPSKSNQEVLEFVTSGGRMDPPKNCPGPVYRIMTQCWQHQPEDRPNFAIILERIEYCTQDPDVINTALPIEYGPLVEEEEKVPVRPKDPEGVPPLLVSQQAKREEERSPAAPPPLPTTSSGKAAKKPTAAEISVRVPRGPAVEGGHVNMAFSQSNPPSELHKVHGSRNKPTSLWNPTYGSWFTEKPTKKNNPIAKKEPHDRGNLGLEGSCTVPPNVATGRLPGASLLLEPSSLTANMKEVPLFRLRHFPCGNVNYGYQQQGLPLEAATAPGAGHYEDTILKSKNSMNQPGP
# [3] = test system: PIK3CA (human), P42336 [Q546K]
# ACVRL1 (human) = ACVRL1 (human) (UniProt P37023)
# Sequence of ACVRL1 (human) (P37023 whole entry, looked up): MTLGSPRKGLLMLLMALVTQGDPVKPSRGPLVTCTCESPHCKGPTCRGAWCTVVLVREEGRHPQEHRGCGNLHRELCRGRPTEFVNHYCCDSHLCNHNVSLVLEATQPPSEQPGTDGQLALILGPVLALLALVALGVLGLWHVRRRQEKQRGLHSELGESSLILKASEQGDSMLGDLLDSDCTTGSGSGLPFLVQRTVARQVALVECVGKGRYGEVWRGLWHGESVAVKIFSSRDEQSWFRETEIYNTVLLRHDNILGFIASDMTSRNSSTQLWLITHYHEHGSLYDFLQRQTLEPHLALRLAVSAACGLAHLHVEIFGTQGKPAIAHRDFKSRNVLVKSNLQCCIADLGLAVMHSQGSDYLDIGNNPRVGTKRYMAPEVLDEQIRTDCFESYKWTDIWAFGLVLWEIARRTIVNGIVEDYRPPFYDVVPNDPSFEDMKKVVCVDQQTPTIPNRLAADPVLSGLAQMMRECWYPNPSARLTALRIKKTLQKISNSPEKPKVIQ
# FGR (human) = FGR (human) (UniProt P09769)
# [4] = test system: MET (human), P08581 [M1250T]
# MAP3K15 (human) = MAP3K15 (human) (UniProt Q6ZN16)
# TSSK1B (human) = TSSK1B (human) (UniProt Q9BXA7)
# [5] = test system: ABL1 (human), P00519 [E255K]
# [6] = test system: ABL1 (human), P00519 [H396P]
# Sequence of MAPKAPK5 (human) (Q8IW41 whole entry, looked up): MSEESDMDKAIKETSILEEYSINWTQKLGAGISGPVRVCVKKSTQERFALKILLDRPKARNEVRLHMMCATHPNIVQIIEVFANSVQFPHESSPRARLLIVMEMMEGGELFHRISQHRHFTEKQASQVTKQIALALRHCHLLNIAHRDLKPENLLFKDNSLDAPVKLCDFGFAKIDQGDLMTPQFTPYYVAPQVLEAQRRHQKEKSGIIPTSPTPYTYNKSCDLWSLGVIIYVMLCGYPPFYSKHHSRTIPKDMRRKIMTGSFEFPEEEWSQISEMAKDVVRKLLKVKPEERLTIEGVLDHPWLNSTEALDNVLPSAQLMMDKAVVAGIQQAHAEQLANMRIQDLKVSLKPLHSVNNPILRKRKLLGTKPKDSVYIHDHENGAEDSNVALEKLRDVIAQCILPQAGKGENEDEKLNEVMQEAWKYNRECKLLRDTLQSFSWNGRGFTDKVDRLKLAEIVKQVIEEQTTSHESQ
compound,measurement,setting,value
COc1ccc(CNC(=O)Nc2ncc([N+](=O)[O-])s2)cc1,"kinase still bound, per cent of control",MYLK (human),100%
same,"kinase still bound, per cent of control",MAPKAPK5 (human),100%
same,"kinase still bound, per cent of control",PHKG1 (human),97%
same,"kinase still bound, per cent of control",ROS1 (human),100%
same,"kinase still bound, per cent of control",PRKD1 (human),69%
same,"kinase still bound, per cent of control",AURKA (human),84%
same,"kinase still bound, per cent of control",MAPK11 (human),100%
same,"kinase still bound, per cent of control",AURKC (human),92%
same,"kinase still bound, per cent of control",MAPK7 (human),97%
same,"kinase still bound, per cent of control",BMPR1A (human),78%
same,"kinase still bound, per cent of control",PRKACB (human),98%
same,"kinase still bound, per cent of control",INSRR (human),93%
same,"kinase still bound, per cent of control",RAF1 (human),63%
same,"kinase still bound, per cent of control",MAPKAPK2 (human),94%
same,"kinase still bound, per cent of control",FRK (human),98%
same,"kinase still bound, per cent of control",CAMK1D (human),100%
same,"kinase still bound, per cent of control",LTK (human),100%
same,"kinase still bound, per cent of control",[1],100%
same,"kinase still bound, per cent of control",PKN1 (human),100%
same,"kinase still bound, per cent of control",IRAK3 (human),100%
same,"kinase still bound, per cent of control",[2],100%
same,"kinase still bound, per cent of control",CSNK1G2 (human),82%
same,"kinase still bound, per cent of control",CSNK1G3 (human),59%
same,"kinase still bound, per cent of control",DCLK3 (human),66%
same,"kinase still bound, per cent of control",EPHA6 (human),100%
same,"kinase still bound, per cent of control",CSNK2A2 (human),100%
same,"kinase still bound, per cent of control",PLK2 (human),100%
same,"kinase still bound, per cent of control",PIM3 (human),83%
same,"kinase still bound, per cent of control",NEK5 (human),100%
same,"kinase still bound, per cent of control",ALK (human),100%
same,"kinase still bound, per cent of control",[3],90%
same,"kinase still bound, per cent of control",ACVRL1 (human),97%
same,"kinase still bound, per cent of control",FGR (human),100%
same,"kinase still bound, per cent of control",[4],93%
same,"kinase still bound, per cent of control",MAP3K15 (human),100%
same,"kinase still bound, per cent of control",TSSK1B (human),91%
same,"kinase still bound, per cent of control",[5],100%
same,"kinase still bound, per cent of control",[6],75%
